Source: publication PMC6615261, “Repurposing Azithromycin and Rifampicin Against Gram-Negative Pathogens by Combination With Peptidomimetics” (Frontiers in Cellular and Infection Microbiology, 2019)

Each substance was assayed on MDR E. coli ST131 (assay: Screening of peptidomimetic-antibiotic combinations (growth / growth inhibition)). Details: 0.5 μM peptidomimetic.
Format: cell-based, Escherichia coli
Design: key to Growth in combination with RIF / Growth in combination with AZM: Growth (+); growth inhibition (–)
Protocol: (§1) Minimal inhibitory concentrations (MICs) of peptidomimetics, antibiotics and their combinations were determined by broth microdilution according to the Clinical Laboratory Standards Institute performance standards (Clinical and Laboratory Standards Institute, [2013]). […] Since rifampicin and azithromycin mainly are used to treat infections with Gram-positive pathogens only CLSI clinical breakpoints were available for such bacteria. […] Potentiation of additional antibiotics by peptidomimetics was determined by using commercial 96-well plates containing varied concentrations of standard antibiotics (COMPAN1F; Trek Diagnostic Systems Inc.). The peptidomimetics were added immediately prior to inoculation with pathogen, and then MICs were determined as above. The MICs of peptidomimetic/antibiotic combinations were determined according to the method above, and the concentration ratios were selected based upon checkerboard results with 2:1 and 1:4 ratio of peptidomimetic with rifampicin or azithromycin, respectively. Minimal bactericidal concentrations (MBCs) were determined by using growth-curve assay plates. MIC plates were prepared as above, and then the plates were incubated at 37°C with continuous shaking. Growth was recorded at 10 min intervals as optical density (OD) at 600 nm during 24 h. At 24 h, for wells without growth, a sample was diluted 10-fold in sterile saline (0.9% sodium chloride) and plated onto MHA, following CLSI guidelines (Clinical and Laboratory Standards Institute, [1999]).

Row | Substance | Potentiation in the screening, rifampicin or azithromycin
1 | Cin-(Lys-βNspe-hArg-βNspe)3-NH2 [Peptidomimetic 27] | did not exhibit any potentiation activity
2 | F5Ph-acetic acid-(5F-Phe)-(Lys-βNspe-hArg-βNspe)3-NH2 [Peptidomimetic 29] | did not exhibit any potentiation activity
3 | Pam-(Lys-βNspe-hArg-βNspe)2-NH2 [Peptidomimetic 13] | did not exhibit any potentiation activity
4 | Pam-(Lys-βNspe-hArg-βNspe)3-NH2 [Peptidomimetic 12] | did not exhibit any potentiation activity
5 | Pam-(Lys-βNspe-hArg-βNspe)-NH2 [Peptidomimetic 9] | did not exhibit any potentiation activity

Same assay, conditions: 0.5 μM peptidomimetic + 0.5 μg/mL rifampicin

Row | Substance | Screening result with rifampicin
6 | Ac-(Lys-βNspe-hArg-βNspe)2-NH2 [Peptidomimetic 10] | potentiated rifampicin activity

Same assay, conditions: peptidomimetic 0.5 μM + azithromycin 1 μg/mL

Row | Substance | Growth in combination with AZM
7 | (NLys)LG(NLys)IW(NLys)I(Nlys)2LF-NH2 [Peptidomimetic 32] | +
8 | (NLys)W(NLys)LF(NLys)2VL(NLys)VLTTG-NH2 [Peptidomimetic 33] | +
9 | Ac-(Lys-NTrp)8-NH2 [Peptidomimetic 19] | –
10 | Ac-(Lys-βNspe)6-NH2 [Peptidomimetic 6] | –
11 | Ac-(Lys-βNspe)8-NH2 [Peptidomimetic 5] | –
12 | Ac-(Lys-βNspe-hArg-βNspe)2-NH2 [Peptidomimetic 10] | +
13 | Ac-(NLys-NPhe)8-NH2 [Peptidomimetic 22] | –
14 | Ac-(NLys-Trp)8-NH2 [Peptidomimetic 20] | +
15 | Ac-(azaLys-βNspe-Lys-βNspe)4-NH2 [Peptidomimetic 17] | +
16 | Ac-(bNLys-Trp)8-NH2 [Peptidomimetic 21] | +
17 | Ac-(bNLys-bNPhe)8-NH2 [Peptidomimetic 18] | +
18 | Ac-(hArg-βNPhe)5-NH2 [Peptidomimetic 3] | +
19 | Ac-(hArg-βNPhe)8-NH2 [Peptidomimetic 2] | +
20 | Cin-(Lys-βNspe-hArg-βNspe)3-NH2 [Peptidomimetic 27] | +
21 | F5Ph-acetic acid-(5F-Phe)-(Lys-βNspe-hArg-βNspe)3-NH2 [Peptidomimetic 29] | +
22 | Pam-(Lys-βNspe-hArg-βNspe)2-NH2 [Peptidomimetic 13] | +
23 | Pam-(Lys-βNspe-hArg-βNspe)3-NH2 [Peptidomimetic 12] | +
24 | Pam-(Lys-βNspe-hArg-βNspe)-NH2 [Peptidomimetic 9] | +

Same assay, conditions: peptidomimetic 0.5 μM + rifampicin 0.5 μg/mL

Row | Substance | Growth in combination with RIF
25 | (NLys)LG(NLys)IW(NLys)I(Nlys)2LF-NH2 [Peptidomimetic 32] | +
26 | (NLys)W(NLys)LF(NLys)2VL(NLys)VLTTG-NH2 [Peptidomimetic 33] | +
27 | Ac-(Lys-NTrp)8-NH2 [Peptidomimetic 19] | +
28 | Ac-(Lys-βNspe)6-NH2 [Peptidomimetic 6] | –
29 | Ac-(Lys-βNspe)8-NH2 [Peptidomimetic 5] | –
30 | Ac-(Lys-βNspe-hArg-βNspe)2-NH2 [Peptidomimetic 10] | –
31 | Ac-(NLys-NPhe)8-NH2 [Peptidomimetic 22] | –
32 | Ac-(NLys-Trp)8-NH2 [Peptidomimetic 20] | –
33 | Ac-(azaLys-βNspe-Lys-βNspe)4-NH2 [Peptidomimetic 17] | +
34 | Ac-(bNLys-Trp)8-NH2 [Peptidomimetic 21] | –
35 | Ac-(bNLys-bNPhe)8-NH2 [Peptidomimetic 18] | +
36 | Ac-(hArg-βNPhe)5-NH2 [Peptidomimetic 3] | –
37 | Ac-(hArg-βNPhe)8-NH2 [Peptidomimetic 2] | +
38 | Cin-(Lys-βNspe-hArg-βNspe)3-NH2 [Peptidomimetic 27] | +
39 | F5Ph-acetic acid-(5F-Phe)-(Lys-βNspe-hArg-βNspe)3-NH2 [Peptidomimetic 29] | +
40 | Pam-(Lys-βNspe-hArg-βNspe)2-NH2 [Peptidomimetic 13] | +
41 | Pam-(Lys-βNspe-hArg-βNspe)3-NH2 [Peptidomimetic 12] | +
42 | Pam-(Lys-βNspe-hArg-βNspe)-NH2 [Peptidomimetic 9] | +

What follows are substances tested on K. pneumoniae ST258 in the same assay as above. Details: 0.5 μM peptidomimetic.
Format: cell-based, Klebsiella pneumoniae
Design: key to Growth in combination with RIF / Growth in combination with AZM: Growth (+); growth inhibition (–)
Protocol: as §1

Row | Substance | Potentiation in the screening, rifampicin or azithromycin
43 | Cin-(Lys-βNspe-hArg-βNspe)3-NH2 [Peptidomimetic 27] | did not exhibit any potentiation activity
44 | F5Ph-acetic acid-(5F-Phe)-(Lys-βNspe-hArg-βNspe)3-NH2 [Peptidomimetic 29] | did not exhibit any potentiation activity
45 | Pam-(Lys-βNspe-hArg-βNspe)2-NH2 [Peptidomimetic 13] | did not exhibit any potentiation activity
46 | Pam-(Lys-βNspe-hArg-βNspe)3-NH2 [Peptidomimetic 12] | did not exhibit any potentiation activity
47 | Pam-(Lys-βNspe-hArg-βNspe)-NH2 [Peptidomimetic 9] | did not exhibit any potentiation activity

Same assay, conditions: peptidomimetic 0.5 μM + azithromycin 1 μg/mL

Row | Substance | Growth in combination with AZM
48 | (NLys)LG(NLys)IW(NLys)I(Nlys)2LF-NH2 [Peptidomimetic 32] | +
49 | (NLys)W(NLys)LF(NLys)2VL(NLys)VLTTG-NH2 [Peptidomimetic 33] | +
50 | Ac-(Lys-NTrp)8-NH2 [Peptidomimetic 19] | +
51 | Ac-(Lys-βNspe)6-NH2 [Peptidomimetic 6] | +
52 | Ac-(Lys-βNspe)8-NH2 [Peptidomimetic 5] | +
53 | Ac-(Lys-βNspe-hArg-βNspe)2-NH2 [Peptidomimetic 10] | +
54 | Ac-(NLys-NPhe)8-NH2 [Peptidomimetic 22] | +
55 | Ac-(NLys-Trp)8-NH2 [Peptidomimetic 20] | +
56 | Ac-(azaLys-βNspe-Lys-βNspe)4-NH2 [Peptidomimetic 17] | +
57 | Ac-(bNLys-Trp)8-NH2 [Peptidomimetic 21] | +
58 | Ac-(bNLys-bNPhe)8-NH2 [Peptidomimetic 18] | +
59 | Ac-(hArg-βNPhe)5-NH2 [Peptidomimetic 3] | +
60 | Ac-(hArg-βNPhe)8-NH2 [Peptidomimetic 2] | +
61 | Cin-(Lys-βNspe-hArg-βNspe)3-NH2 [Peptidomimetic 27] | +
62 | F5Ph-acetic acid-(5F-Phe)-(Lys-βNspe-hArg-βNspe)3-NH2 [Peptidomimetic 29] | +
63 | Pam-(Lys-βNspe-hArg-βNspe)2-NH2 [Peptidomimetic 13] | +
64 | Pam-(Lys-βNspe-hArg-βNspe)3-NH2 [Peptidomimetic 12] | +
65 | Pam-(Lys-βNspe-hArg-βNspe)-NH2 [Peptidomimetic 9] | +

Same assay, conditions: peptidomimetic 0.5 μM + rifampicin 0.5 μg/mL

Row | Substance | Growth in combination with RIF
66 | (NLys)LG(NLys)IW(NLys)I(Nlys)2LF-NH2 [Peptidomimetic 32] | +
67 | (NLys)W(NLys)LF(NLys)2VL(NLys)VLTTG-NH2 [Peptidomimetic 33] | +
68 | Ac-(Lys-NTrp)8-NH2 [Peptidomimetic 19] | +
69 | Ac-(Lys-βNspe)6-NH2 [Peptidomimetic 6] | +
70 | Ac-(Lys-βNspe)8-NH2 [Peptidomimetic 5] | +
71 | Ac-(Lys-βNspe-hArg-βNspe)2-NH2 [Peptidomimetic 10] | +
72 | Ac-(NLys-NPhe)8-NH2 [Peptidomimetic 22] | +
73 | Ac-(NLys-Trp)8-NH2 [Peptidomimetic 20] | +
74 | Ac-(azaLys-βNspe-Lys-βNspe)4-NH2 [Peptidomimetic 17] | +
75 | Ac-(bNLys-Trp)8-NH2 [Peptidomimetic 21] | +
76 | Ac-(bNLys-bNPhe)8-NH2 [Peptidomimetic 18] | +
77 | Ac-(hArg-βNPhe)5-NH2 [Peptidomimetic 3] | +
78 | Ac-(hArg-βNPhe)8-NH2 [Peptidomimetic 2] | +
79 | Cin-(Lys-βNspe-hArg-βNspe)3-NH2 [Peptidomimetic 27] | +
80 | F5Ph-acetic acid-(5F-Phe)-(Lys-βNspe-hArg-βNspe)3-NH2 [Peptidomimetic 29] | +
81 | Pam-(Lys-βNspe-hArg-βNspe)2-NH2 [Peptidomimetic 13] | +
82 | Pam-(Lys-βNspe-hArg-βNspe)3-NH2 [Peptidomimetic 12] | +
83 | Pam-(Lys-βNspe-hArg-βNspe)-NH2 [Peptidomimetic 9] | +
